The source of these data is patent US20240352069A1, “SYNTHETIC PEPTIDE, AND COSMETIC COMPOSITION OR PHARMACEUTICAL COMPOSITION AND APPLICATION THEREOF” (SHENZHEN WINKEY TECHNOLOGY CO., LTD., priority 2021, published 2024).

Residues, ends and D or L forms follow the SMILES beside them. *: point of attachment. CH2CO2tBu = CC(C)(C)OC(=O)C*; Carboxymethyl = O=C(O)C*; Allyl = C=CC*; X1 = CCCCCCS*; SEt = CCS*

Data set [1] is described as follows: Stability of powders under high humidity (HPLC purity). The note with it: powder; for High humidity, Day 10 (purity): RH92.5%, 25° C., 10 days. The class given is physicochemical. The method, then: The powder samples of peptides (3)-(7) were placed under high humidity (RH92.5%, 25° C.) conditions for 10 days, and the purity changes of each sample were investigated by HPLC.

Data set [2] concerns HaCaT cells. Briefly: UVB light damage repair experiment (MTT), HaCaT. The class given is cell-based, human. The following applies: UVB irradiated, 12.5-100 ppm, 24 hours. The method, then: (§1) Human keratinocytes (HaCaT) were purchased from the Kunming Cell Bank of the Type Culture Collection Committee of the Chinese Academy of Sciences, and mouse skin fibroblasts (NIH3T3) were purchased from the Shanghai Cell Bank of the Type Culture Collection Committee of the Chinese Academy of Sciences.
Take cells in good exponential growth phase, add 0.25% trypsin digestion solution, digest to make adherent cells fall off, count 1×10^5-4×10^5 cells/mL, and make cell suspension.
Cells were seeded into 96-well plates at 10,000 cells/well, and the UVB photodamage model was established when the cells reached about 80% confluent. […]
After 24 hours, add 22 μL of 5 mg/mL MTT to each well, place in an incubator and incubate for 4 hours, discard the original solution, and add 150 μL/well of DMSO. After 5 minutes, use a microplate reader to read the reference OD values at 490 nm and 630 nm wavelengths.
By establishing a UVB light-damaged cell model, administering 24 hours after ultraviolet light irradiation, and using the MTT method to detect cell proliferation activity, the ability of the peptide of the present invention to repair light-damaged cells was evaluated.

The subject of the next data set is NIH3T3 cells. Put plainly: Cell proliferation experiment (MTT), NIH3T3. The class given is cell-based, mouse. The following applies: 24 hours.
Text: as §1
(§2) • a) Take cells in good condition in exponential growth phase, add 0.25% trypsin digestion solution, digest to make adherent cells fall off, count 1-4×10^5 cells/mL, and make cell suspension; • b) Appropriately dilute 2000 cells/well of the cell suspension and inoculate it on a 96-well plate at 200 μL/well, and culture it in a constant temperature CO2 incubator for 24 hours. • c) Change the medium, add the sample to be tested, 20 μL/well, and incubate for 24 hours; • d) Add the MTT reagent into the 96-well plate, 20 μL/well, and react in the incubator for 4 hours; • e) Aspirate the supernatant, add DMSO, 150 μL/well, and shake on a plate shaker for 5 minutes; • f) After 5 minutes, use a microplate reader to read the reference OD values at 490 nm and 630 nm wavelengths, and calculate the cell viability:
(§3) MTT method is a method to detect cell survival and growth. The measured OD value is directly proportional to cell activity. The larger the OD value, the higher the cell activity.

Data set [3] has as its system HaCaT cells. Put plainly: Cell proliferation experiment (MTT), HaCaT. The following applies: 24 hours. In kind it is cell-based, human.
Text: as §1, §2, §3

Data set [4] relates to HaCaT cells. Put plainly: Scratch test (cell migration). In kind it is cell-based, human. The note with it: 24 hours after scratch; peptides 100 ppm, EGF 50 U/mL; vs normal control group. The method, then: Human keratinocytes (HaCaT) were purchased from the Kunming Cell Bank of the Type Culture Collection Committee of the Chinese Academy of Sciences.
The cryopreserved HaCaT cells were cultured, subcultured to about 5 passages according to the ratio of 1:2, and the cells with better growth were selected as the experimental objects. Cells were seeded in a 12-well plate at a density of 200,000 cells/well, with 2 mL of cell suspension in each well. After the cells adhered to the wall, the medium was replaced with 0.5% to 1% fetal bovine serum to maintain the cells for 24 hours to synchronize them. change. Scratch with a sterilized pipette tip, wash off the dropped cells with PBS, add the sample to be tested, continue to incubate in a 37° C., 5% CO2 incubator, and place it under an optical microscope after 24 hours to analyze the wound healing area.
The cell scratch migration test can reflect the proliferation and repair ability of the cells.

Data set [5] in a line: Stability of powders at 25° C. and 40° C. (HPLC purity over time).
Experimental: (§4) In Example 29, the HPLC chromatographic separation conditions were as follows: • Chromatographic column: Octadecyl bonded silica gel as filler 4.6*250 mm, 5 m • Mobile phase A: Acetonitrile (containing 0.09% trifluoroacetic acid) • Mobile phase B: 0.1% trifluoroacetic acid • Diluent: water • Flow rate: 1.0 ml/min; • Column temperature: 35° C.; • Detection wavelength: 215 nm; • Injection volume: 10 μl; • Running time: 32 min • Gradient elution table:
(§5) The test solution: Take an appropriate amount of this product and add water to dissolve and dilute to make a solution containing 1 mg per 1 ml.
Data set [6] in a line: Stability of aqueous solutions (HPLC purity over time). The class given is physicochemical.
Experimental: as §4, §5
[7] abbreviates: 12.5 ppm-100 ppm, vs PBS blank control.

Take `CCC(C)C(NC(=O)CNC(=O)C(CCSC)NC(=O)C(CCCNC(=N)N)NC(=O)C(Cc1ccccc1)NC(=O)C1CCCN1C(=O)C(C)N)C(=O)NC(CSCC(=O)OC(C)(C)C)C(=O)NC(C(=O)NC(C(=O)NC(CC(N)=O)C(=O)O)C(C)O)C(C)O` (stereo not shown) [(4)] (H-APFRMGIC(CH2CO2tBu)TTN-OH; configuration not given here): in data set [1], the “Day 0 (purity)” value is 96.017% and the “High humidity, Day 10 (purity)” value turned out to be 93.962%.
In the same order, the values of `CCSSCC(NC(=O)C(NC(=O)CNC(=O)C(CCSC)NC(=O)C(CCCNC(=N)N)NC(=O)C(Cc1ccccc1)NC(=O)C1CCCN1C(=O)C(C)N)C(C)CC)C(=O)NC(C(=O)NC(C(=O)NC(CC(N)=O)C(=O)O)C(C)O)C(C)O` (stereo not shown) [(5)] (H-APFRMGIC(SEt)TTN-OH; configuration not given here) are 97.482% and 94.603%.
In the same order, the values of `CCCCCCSSCC(NC(=O)C(NC(=O)CNC(=O)C(CCSC)NC(=O)C(CCCNC(=N)N)NC(=O)C(Cc1ccccc1)NC(=O)C1CCCN1C(=O)C(C)N)C(C)CC)C(=O)NC(C(=O)NC(C(=O)NC(CC(N)=O)C(=O)O)C(C)O)C(C)O` (stereo not shown) [(6)] (H-APFRMGIC(X1)TTN-OH; configuration not given here) are 96.235% and 95.719%.
As for `CCC(C)C(NC(=O)CNC(=O)C(CCSC)NC(=O)C(CCCNC(=N)N)NC(=O)C(Cc1ccccc1)NC(=O)C1CCCN1C(=O)C(C)N)C(=O)NC(CSCC(=O)O)C(=O)NC(C(=O)NC(C(=O)NC(CC(N)=O)C(=O)O)C(C)O)C(C)O` (stereo not shown) [(7)] (H-APFRMGIC(Carboxymethyl)TTN-OH; configuration not given here), in data set [1], the “Day 0 (purity)” value stood at 98.541% and the “High humidity, Day 10 (purity)” value was found to be 97.863%.
`C=CCSCC(NC(=O)C(NC(=O)CNC(=O)C(CCSC)NC(=O)C(CCCNC(=N)N)NC(=O)C(Cc1ccccc1)NC(=O)C1CCCN1C(=O)C(C)N)C(C)CC)C(=O)NC(C(=O)NC(C(=O)NC(CC(N)=O)C(=O)O)C(C)O)C(C)O` (stereo not shown) [Peptide (3)] (H-APFRMGIC(Allyl)TTN-OH; configuration not given here): the “effect on improving activity of photodamaged HaCaT cells compared among peptides (1)-(5)” value in the data set on HaCaT cells [2] is reported as “better effect on improving cell activity”. The “impact on the activity of NIH3T3 cells compared among peptides (1)-(5)” value in the data set with NIH3T3 cells (12.5-100 ppm) is “greater impact on the activity of NIH3T3 cells”. In addition, the “effect on the activity of NIH3T3 cells (MTT)” value with NIH3T3 cells (setting [7]) is “could improve the activity of NIH3T3 cells and promote their proliferation”. For the same molecule, the “impact on the activity of HaCaT cells compared among peptides (1)-(5)” value with HaCaT cells [3] (12.5-100 ppm) is “greater impact on the activity of HaCaT cells”. Further, in the data set with HaCaT cells [3] (setting [7]), the “effect on the activity of HaCaT cells (MTT)” value is reported as “could both improve the activity of HaCaT cells, promote their proliferation”. In addition, in data set [1], the “Day 0 (purity)” value turned out to be 97.605% and the “High humidity, Day 10 (purity)” value came out at 96.251%.
Regarding “EGF: epidermal growth factor (EGF), 50 U/mL, positive group in the scratch test”, in the data set with HaCaT cells [4], the “scratch spacing (proliferation and migration)” value is given as “spacing was significantly shortened”.
For “H-Ala-Pro-Phe-Arg-Met-Gly-Ile-Cys-Thr-Thr-Asn-OH (H-APFRMGICTTN-OH) [Reference peptide A]”, the “powder (purity)” value in data set [5] (25° C., Day 5) is given as 85.913%; in data set [5] (40° C., Day 5) it was 57.503%; in data set [5] (40° C., Day 5, listed as reference peptide A), 57.503%; in data set [5] (powder, Day 0), 88.030%. The “aqueous solution (purity)” value is 80.880% in data set [6] (Day 8 at room temperature); 72.693% in data set [6] (Day 18 at room temperature); 72.693% in data set [6] (Day 18 at room temperature, listed as reference peptide A); 88.030% in data set [6] (Solution, Day 0); “decreased significantly” in data set [6] (Solution, Day 0, listed as reference peptide A).
